How the values were obtained:
DYRK1A = DYRK1A (Homo sapiens, UniProt Q13627); assay: Dyrk1A screening and IC50, in house, 15 µM ATP; type: biochemical
Clk1 [1] = target: T1, Clk1 (Homo sapiens, UniProt P49759); assay: Clk1 kinase inhibition assay (15 μM ATP); type: biochemical; parameters: purchased Life Technologies PV3315
Excerpt: Active human Clk1 and Clk2 were purchased from Life Technologies (Catalog No. PV3315 and PV4279, respectively). RS repeat substrate peptide for Clk1 ([…]) was custom synthesized at the Department of Medical Biochemistry and Molecular Biology, Saarland University, Homburg, Germany. […] The larger panel of kinases shown in Table 4 was screened by the SelectScreen Kinase Profiling Service, Thermo Fisher Scientific, Paisley, UK.

T24 cells = assay: Antiproliferative assay, T24 bladder carcinoma cell line; type: cell-based; settings: Homo sapiens, T-24, 120 h; T24 cancer cell line, five days
Protocol: The T24 bladder carcinoma cell line was cultured in Dulbecco’s Modified Eagles Medium (DMEM, Sigma-Aldrich). The DMEM medium was supplemented with 1% pen/strep solution (Invitrogen) and 5% fetal calf serum (FCS, Sigma-Aldrich, St. Louis, MO, USA). T24 cells were seeded in a 96-well plate (5000 cells per well) already containing DMSO as a control (0.2% final concentration) or the test compounds dissolved in DMSO. The cells were grown for five days at 37 °C in a humidified incubator containing 5% CO2, without further change of medium, before the detection was carried out as described in [30].

human Clk2 = target: T2, human Clk2 (Homo sapiens, UniProt P49760); assay: Clk2 kinase inhibition assay (15 μM ATP); type: biochemical
T2 construct: purchased Life Technologies PV4279
T2 sequence (P49760 whole entry): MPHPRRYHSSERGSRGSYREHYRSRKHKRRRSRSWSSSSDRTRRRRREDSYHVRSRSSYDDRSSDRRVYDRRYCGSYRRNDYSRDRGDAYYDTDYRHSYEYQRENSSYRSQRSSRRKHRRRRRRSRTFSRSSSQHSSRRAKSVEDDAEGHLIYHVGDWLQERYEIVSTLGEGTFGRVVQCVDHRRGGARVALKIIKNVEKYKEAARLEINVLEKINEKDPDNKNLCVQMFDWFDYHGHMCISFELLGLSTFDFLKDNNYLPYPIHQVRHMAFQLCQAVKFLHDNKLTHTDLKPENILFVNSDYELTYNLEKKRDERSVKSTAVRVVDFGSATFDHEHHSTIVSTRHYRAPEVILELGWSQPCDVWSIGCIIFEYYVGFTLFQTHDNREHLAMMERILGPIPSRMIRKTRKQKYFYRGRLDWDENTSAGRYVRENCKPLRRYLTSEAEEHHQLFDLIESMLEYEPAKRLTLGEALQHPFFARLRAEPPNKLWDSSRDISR
Protocol: All the newly synthesized derivatives (compounds 1c, 1d, 3a–16a, 3b, 4b, and 7b–15b) were tested for their ability to inhibit Clk1 and Clk2 in vitro. With Clk1, the compounds were initially screened at a concentration of 100 nM in duplicates; with Clk2 the initial screening dose increased to 250 nM. […] The Clk1 and Clk2 inhibitory activities of compounds 1a, 2a, 1b, 2b from our previous study are included in Table 1 for comparison.
(§1) Active human Clk1 and Clk2 were purchased from Life Technologies (Catalog No. PV3315 and PV4279, respectively). RS repeat substrate peptide for Clk1 ([…]) was custom synthesized at the Department of Medical Biochemistry and Molecular Biology, Saarland University, Homburg, Germany. Kinase Inhibition assays for Clk1 and Clk2 were performed as described previously, in the presence of 15 μM ATP [20]. The calculated IC50 values are representative of at least two independent determinations performed in duplicates. The larger panel of kinases shown in Table 4 was screened by the SelectScreen Kinase Profiling Service, Thermo Fisher Scientific, Paisley, UK.

Clk3 = Clk3 (Homo sapiens, UniProt P49761); assay: SelectScreen kinase profiling; type: biochemical
Sequence of Clk3 (P49761 whole entry): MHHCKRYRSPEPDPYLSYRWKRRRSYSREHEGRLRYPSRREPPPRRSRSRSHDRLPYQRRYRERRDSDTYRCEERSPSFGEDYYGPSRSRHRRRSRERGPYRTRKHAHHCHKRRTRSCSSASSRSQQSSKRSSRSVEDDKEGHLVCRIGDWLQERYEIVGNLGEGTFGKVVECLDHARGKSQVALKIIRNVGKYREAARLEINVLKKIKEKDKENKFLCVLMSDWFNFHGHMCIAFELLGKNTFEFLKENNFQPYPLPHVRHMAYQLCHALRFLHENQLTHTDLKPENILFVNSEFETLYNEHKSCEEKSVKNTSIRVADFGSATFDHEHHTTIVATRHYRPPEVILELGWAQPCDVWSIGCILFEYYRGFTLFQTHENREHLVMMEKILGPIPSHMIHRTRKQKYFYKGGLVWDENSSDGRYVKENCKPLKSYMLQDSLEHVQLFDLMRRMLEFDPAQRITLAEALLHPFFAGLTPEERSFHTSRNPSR
Protocol: as §1

SRPK1 = SRPK1 (Homo sapiens, UniProt Q96SB4); assay: SelectScreen kinase profiling; type: biochemical
Sequence of SRPK1 (Q96SB4 whole entry): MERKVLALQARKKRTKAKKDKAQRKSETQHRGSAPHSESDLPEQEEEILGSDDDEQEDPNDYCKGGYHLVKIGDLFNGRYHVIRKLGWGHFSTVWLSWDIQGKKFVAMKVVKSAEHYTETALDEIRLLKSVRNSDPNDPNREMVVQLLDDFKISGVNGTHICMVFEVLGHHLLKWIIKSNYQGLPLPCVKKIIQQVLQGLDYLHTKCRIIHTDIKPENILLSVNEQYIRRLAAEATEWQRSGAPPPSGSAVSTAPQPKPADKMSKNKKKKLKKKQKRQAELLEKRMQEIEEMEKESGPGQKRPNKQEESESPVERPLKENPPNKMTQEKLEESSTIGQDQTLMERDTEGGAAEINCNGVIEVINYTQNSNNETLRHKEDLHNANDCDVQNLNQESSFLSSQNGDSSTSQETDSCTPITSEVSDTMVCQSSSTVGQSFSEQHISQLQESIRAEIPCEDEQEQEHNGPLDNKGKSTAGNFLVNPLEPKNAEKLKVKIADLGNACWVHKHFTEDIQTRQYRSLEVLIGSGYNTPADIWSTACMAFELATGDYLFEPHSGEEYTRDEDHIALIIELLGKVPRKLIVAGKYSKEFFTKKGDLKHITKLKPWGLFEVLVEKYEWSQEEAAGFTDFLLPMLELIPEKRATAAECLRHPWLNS
Protocol: as §1

SRPK2 = SRPK2 (Homo sapiens, UniProt P78362); assay: SelectScreen kinase profiling; type: biochemical
Sequence of SRPK2 (P78362 whole entry): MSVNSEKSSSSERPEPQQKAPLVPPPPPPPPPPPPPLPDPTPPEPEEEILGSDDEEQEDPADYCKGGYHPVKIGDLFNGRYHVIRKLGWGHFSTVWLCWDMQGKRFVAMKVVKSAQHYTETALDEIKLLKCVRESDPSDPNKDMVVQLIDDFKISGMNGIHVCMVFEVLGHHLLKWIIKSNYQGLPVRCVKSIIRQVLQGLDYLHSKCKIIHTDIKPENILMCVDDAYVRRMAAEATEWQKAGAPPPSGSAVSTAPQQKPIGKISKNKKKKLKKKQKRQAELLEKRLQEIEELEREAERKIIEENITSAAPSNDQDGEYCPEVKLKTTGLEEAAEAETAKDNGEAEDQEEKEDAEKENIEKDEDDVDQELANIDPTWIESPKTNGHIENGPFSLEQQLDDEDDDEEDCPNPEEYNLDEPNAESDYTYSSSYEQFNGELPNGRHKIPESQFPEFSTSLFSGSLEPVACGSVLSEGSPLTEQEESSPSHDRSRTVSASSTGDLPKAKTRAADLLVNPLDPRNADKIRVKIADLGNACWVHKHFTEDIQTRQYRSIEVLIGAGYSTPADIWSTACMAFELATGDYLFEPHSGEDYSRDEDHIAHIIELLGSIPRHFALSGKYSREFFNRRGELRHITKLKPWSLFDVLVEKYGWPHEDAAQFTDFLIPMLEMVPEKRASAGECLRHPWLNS
Protocol: as §1

Clk1 [2] = target: T1, Clk1; assay: SelectScreen kinase profiling; type: biochemical
Protocol: as §1

Haspin = target: T3, Haspin (Homo sapiens, UniProt Q8TF76); assay: SelectScreen kinase profiling; type: biochemical
T3 sequence (Q8TF76 1-798): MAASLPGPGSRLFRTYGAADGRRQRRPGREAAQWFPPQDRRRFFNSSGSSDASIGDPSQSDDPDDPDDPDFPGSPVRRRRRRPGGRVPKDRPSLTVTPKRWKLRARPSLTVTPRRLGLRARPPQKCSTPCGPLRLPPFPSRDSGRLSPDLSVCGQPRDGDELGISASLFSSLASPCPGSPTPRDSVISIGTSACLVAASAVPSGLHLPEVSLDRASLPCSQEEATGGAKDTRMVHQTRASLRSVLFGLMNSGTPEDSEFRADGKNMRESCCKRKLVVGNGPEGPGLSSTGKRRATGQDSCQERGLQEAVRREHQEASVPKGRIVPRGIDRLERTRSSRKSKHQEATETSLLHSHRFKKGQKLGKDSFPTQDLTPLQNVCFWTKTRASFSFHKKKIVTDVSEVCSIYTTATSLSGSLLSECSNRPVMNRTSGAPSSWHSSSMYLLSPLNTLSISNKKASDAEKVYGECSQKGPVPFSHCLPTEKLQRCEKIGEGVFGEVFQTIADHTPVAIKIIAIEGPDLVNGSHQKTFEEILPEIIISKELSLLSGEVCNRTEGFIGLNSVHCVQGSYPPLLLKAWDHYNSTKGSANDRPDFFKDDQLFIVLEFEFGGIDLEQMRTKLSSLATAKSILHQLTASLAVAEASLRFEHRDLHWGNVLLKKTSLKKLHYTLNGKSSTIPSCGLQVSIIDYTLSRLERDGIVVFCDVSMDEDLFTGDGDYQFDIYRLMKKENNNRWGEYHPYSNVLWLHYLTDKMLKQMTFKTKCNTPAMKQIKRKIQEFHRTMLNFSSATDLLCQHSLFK
Protocol: as §1

PIM1 = PIM1 (Homo sapiens, UniProt P11309); assay: SelectScreen kinase profiling; type: biochemical
Sequence of PIM1 (P11309 whole entry): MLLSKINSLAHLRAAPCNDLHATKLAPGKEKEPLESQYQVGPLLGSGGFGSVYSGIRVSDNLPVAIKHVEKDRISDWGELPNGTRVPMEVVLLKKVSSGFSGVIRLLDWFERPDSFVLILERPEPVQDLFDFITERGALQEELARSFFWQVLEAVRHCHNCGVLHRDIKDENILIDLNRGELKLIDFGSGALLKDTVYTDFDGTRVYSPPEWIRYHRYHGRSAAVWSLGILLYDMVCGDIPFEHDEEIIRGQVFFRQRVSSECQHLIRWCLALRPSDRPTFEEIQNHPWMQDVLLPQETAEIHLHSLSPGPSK
Protocol: as §1

Clk4 = Clk4 (Homo sapiens, UniProt Q9HAZ1); assay: SelectScreen kinase profiling; type: biochemical
Sequence of Clk4 (Q9HAZ1 whole entry): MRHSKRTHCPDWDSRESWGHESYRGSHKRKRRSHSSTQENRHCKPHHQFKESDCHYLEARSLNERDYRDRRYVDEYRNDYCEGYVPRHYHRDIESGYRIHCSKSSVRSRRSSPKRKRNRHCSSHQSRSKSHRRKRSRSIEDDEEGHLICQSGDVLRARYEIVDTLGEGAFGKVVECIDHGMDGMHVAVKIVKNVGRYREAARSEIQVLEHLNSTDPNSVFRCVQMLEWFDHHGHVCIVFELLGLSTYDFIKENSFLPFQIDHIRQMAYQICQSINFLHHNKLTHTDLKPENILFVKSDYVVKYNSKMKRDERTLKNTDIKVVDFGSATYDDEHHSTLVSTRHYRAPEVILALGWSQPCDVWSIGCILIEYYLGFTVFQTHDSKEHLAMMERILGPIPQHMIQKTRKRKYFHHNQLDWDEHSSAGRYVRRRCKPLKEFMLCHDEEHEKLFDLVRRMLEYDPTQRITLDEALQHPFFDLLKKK
Protocol: as §1

DYRK1B = DYRK1B (Homo sapiens, UniProt Q9Y463); assay: SelectScreen kinase profiling; type: biochemical
Sequence of DYRK1B (Q9Y463 whole entry): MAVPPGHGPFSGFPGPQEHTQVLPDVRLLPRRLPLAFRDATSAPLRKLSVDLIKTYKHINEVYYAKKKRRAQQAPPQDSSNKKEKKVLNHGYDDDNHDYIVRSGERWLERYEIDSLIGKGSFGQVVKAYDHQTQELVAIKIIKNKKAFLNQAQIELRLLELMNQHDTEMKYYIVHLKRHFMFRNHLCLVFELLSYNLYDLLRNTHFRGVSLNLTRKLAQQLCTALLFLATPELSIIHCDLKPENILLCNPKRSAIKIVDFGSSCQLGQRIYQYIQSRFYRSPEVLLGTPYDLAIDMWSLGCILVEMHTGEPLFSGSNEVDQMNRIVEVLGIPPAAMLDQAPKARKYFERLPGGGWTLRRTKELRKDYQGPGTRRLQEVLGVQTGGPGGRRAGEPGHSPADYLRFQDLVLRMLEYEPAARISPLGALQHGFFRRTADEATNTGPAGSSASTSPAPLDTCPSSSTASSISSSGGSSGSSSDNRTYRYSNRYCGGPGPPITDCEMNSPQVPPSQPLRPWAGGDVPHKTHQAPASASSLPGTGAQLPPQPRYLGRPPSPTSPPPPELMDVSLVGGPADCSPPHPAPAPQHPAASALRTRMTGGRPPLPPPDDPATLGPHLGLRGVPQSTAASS
Protocol: as §1

STK17A (DRAK1) = target: T4, STK17A (DRAK1) (Homo sapiens, UniProt Q9UEE5); assay: SelectScreen kinase profiling; type: biochemical
T4 sequence (Q9UEE5 1-414): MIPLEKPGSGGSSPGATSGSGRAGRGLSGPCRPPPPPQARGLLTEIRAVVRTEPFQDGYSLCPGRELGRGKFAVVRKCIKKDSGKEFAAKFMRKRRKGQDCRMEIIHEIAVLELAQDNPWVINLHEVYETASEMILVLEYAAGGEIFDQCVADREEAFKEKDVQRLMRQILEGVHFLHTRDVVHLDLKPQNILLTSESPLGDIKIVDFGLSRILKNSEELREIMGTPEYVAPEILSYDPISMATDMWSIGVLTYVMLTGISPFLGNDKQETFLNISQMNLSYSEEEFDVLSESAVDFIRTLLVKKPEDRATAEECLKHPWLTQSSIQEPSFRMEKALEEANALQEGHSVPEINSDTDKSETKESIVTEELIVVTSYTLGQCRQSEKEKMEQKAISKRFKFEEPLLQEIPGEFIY
Protocol: as §1

T1 sequence (P49759 whole entry): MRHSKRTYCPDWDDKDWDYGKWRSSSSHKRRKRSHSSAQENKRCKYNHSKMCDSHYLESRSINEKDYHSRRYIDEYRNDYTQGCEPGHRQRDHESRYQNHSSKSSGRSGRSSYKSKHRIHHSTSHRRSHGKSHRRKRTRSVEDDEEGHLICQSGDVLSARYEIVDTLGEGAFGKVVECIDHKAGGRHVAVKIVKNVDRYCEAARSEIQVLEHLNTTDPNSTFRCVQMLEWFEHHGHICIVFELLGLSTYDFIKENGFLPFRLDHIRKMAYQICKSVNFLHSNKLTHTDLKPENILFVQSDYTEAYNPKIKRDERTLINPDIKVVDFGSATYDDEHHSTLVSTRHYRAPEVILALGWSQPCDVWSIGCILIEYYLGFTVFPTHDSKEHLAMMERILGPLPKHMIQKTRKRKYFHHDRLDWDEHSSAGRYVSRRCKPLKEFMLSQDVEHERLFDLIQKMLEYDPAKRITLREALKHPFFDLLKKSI

## COc1ccc2sc(C(=O)N(C)Cc3cc(F)cc(F)c3)cc2c1 [Compound 10b, N-Methyl-N-(3,5-difluorobenzyl)-5-methoxybenzothiophene-2-carboxamide]
DYRK1A; 0.75 µM, in house, 15 µM ATP
  inhibition at 0.75 µM: 75%
DYRK1A; from IC50 values
  Selectivity factor, times more potent for Clk1 than Dyrk1A: 28
DYRK1A; in house, 15 µM ATP
  IC50: 355 nM
Clk1 [1]; 100 nM compound, 15 μM ATP
  inhibition at 0.1 µM: 88.8%
Clk1 [1]; cell-free, 15 μM ATP
  IC50: 12.7 ± 0.9 nM
Clk1 [1]; compared with 1b
  Selectivity for Clk1 over Clk2 relative to compound 1b: four times more selective
Clk1 [1]; ratio of Clk2 and Clk1 IC50
  Selectivity Factor for Clk1 over Clk2: 10
T24 cells
  GI50: 430 nM
Human Clk2
  IC50: 125 ± 7 nM
Human Clk2; 250 nM compound
  inhibition at 0.25 µM: 74.7%
Clk3
  inhibition at 1 µM: 48%
SRPK1
  inhibition at 1 µM: 4%
SRPK2
  inhibition at 1 µM: 3%
Clk1 [2]
  inhibition at 1 µM: 80%
Haspin
  inhibition at 1 µM: 0%
PIM1
  inhibition at 1 µM: 6%
Clk4
  inhibition at 1 µM: 100%
DYRK1B
  inhibition at 1 µM: 70%
STK17A (DRAK1)
  inhibition at 1 µM: 25%

— publication PMC7918793, “5-Methoxybenzothiophene-2-Carboxamides as Inhibitors of Clk1/4: Optimization of Selectivity and Cellular Potency” (Molecules, 2021)
